pIC50: −log10 of the molar value. A value given as a limit tells only on which side of the number the result lay.

The target of the assay is recombinant human SAE enzyme (Homo sapiens (Human), UniProt Q9UBT2). As to the kind of experiment: SAE HTRF enzyme assay. The assay is classed as biochemical. The following applies: for pIC50: class symbols A/B/C; for IC50: SAE inhibition, class symbols, legend in nM. An outline of the steps:
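Sumoylation of Ubc9-GST by SAE was followed at low ATP (0.5 μM), pH 7.5, 24° C. for 105 min. Product was detected by HTRF with antibody pairs against Flag and GST tags.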

The mark [1] stands for this setting: SAE inhibition at compound concentration 0.111 μM.

Sequence of recombinant human SAE enzyme (Q9UBT2 whole entry): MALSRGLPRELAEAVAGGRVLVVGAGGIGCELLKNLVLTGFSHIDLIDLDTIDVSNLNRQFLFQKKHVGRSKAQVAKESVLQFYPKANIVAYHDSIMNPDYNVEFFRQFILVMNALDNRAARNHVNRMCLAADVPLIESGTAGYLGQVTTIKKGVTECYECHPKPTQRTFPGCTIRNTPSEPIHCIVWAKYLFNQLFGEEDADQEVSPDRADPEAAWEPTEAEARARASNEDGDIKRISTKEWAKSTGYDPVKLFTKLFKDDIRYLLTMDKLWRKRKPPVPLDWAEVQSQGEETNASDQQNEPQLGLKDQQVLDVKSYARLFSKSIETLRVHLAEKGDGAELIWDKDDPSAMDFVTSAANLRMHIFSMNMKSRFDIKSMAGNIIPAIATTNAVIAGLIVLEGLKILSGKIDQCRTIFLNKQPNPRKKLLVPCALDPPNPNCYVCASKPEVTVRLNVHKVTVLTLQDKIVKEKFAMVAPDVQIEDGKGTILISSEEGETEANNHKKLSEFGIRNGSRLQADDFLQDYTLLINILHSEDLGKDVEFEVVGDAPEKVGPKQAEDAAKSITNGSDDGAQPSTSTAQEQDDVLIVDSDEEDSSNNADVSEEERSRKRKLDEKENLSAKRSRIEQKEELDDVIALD
Sequence of recombinant human SAE enzyme (Q9UBE0 whole entry partner): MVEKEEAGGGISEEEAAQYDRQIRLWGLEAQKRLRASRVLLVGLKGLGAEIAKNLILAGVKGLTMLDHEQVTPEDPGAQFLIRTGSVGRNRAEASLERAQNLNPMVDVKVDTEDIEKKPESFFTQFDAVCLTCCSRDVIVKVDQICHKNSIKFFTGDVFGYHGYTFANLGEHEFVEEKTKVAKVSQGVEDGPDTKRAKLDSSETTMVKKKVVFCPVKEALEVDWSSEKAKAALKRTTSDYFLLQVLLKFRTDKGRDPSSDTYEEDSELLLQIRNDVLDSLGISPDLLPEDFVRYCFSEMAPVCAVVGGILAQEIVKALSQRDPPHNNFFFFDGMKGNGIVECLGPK

In the case of `NS(=O)(=O)OC[C@H]1C[C@@H](Nc2ncncc2C(=O)c2cc([C@@H]3OCCc4ccc(Cl)nc43)c(Cl)s2)C[C@@H]1O` (single isomer, unassigned) [I-276a, [(1R,2S,4R)-4-{[5-({5-chloro-4-[(8S)-2-chloro-5,8-dihydro-6H-pyrano[3,4-b]pyridin-8-yl]-2-thienyl}carbonyl)pyrimidin-4-yl]amino}-2-hydroxycyclopentyl]methyl sulfamate or [(1R,2S,4R)-4-{[5-({5-chloro-4-[(8R)-2-chloro-5,8-dihydro-6H-pyrano[3,4-b]pyridin-8-yl]-2-thienyl}carbonyl)pyrimidin-4-yl]amino}-2-hydroxycyclopentyl]methyl sulfamate], the negative-log IC50 (pIC50) is 6.00 to 7.00. Besides, under “Concentration 0.111 μM”, the “Percent Inhibition” value worked out at 28.
As for `NS(=O)(=O)OC[C@H]1C[C@@H](Nc2ncncc2C(=O)c2cc([C@@H]3OCCc4ccc(Cl)nc43)c(Cl)s2)C[C@@H]1O` (single isomer, unassigned) [I-276b, [(1R,2S,4R)-4-{[5-({5-chloro-4-[(8S)-2-chloro-5,8-dihydro-6H-pyrano[3,4-b]pyridin-8-yl]-2-thienyl}carbonyl)pyrimidin-4-yl]amino}-2-hydroxycyclopentyl]methyl sulfamate or [(1R,2S,4R)-4-{[5-({5-chloro-4-[(8R)-2-chloro-5,8-dihydro-6H-pyrano[3,4-b]pyridin-8-yl]-2-thienyl}carbonyl)pyrimidin-4-yl]amino}-2-hydroxycyclopentyl]methyl sulfamate], the negative-log IC50 (pIC50) was > 8.00. Besides, the “Percent Inhibition” value (Concentration 0.111 μM) worked out at 101.
Regarding `Cc1sc(C(=O)c2cncnc2N[C@@H]2C[C@H](COS(N)(=O)=O)[C@@H](O)C2)cc1[C@@H]1OCCc2ccc(C3CC3)cc21` (single isomer, unassigned) [I-277a, [(1R,2S,4R)-4-{[5-({4-[(1R)-7-cyclopropyl-3,4-dihydro-1H-isochromen-1-yl]-5-methyl-2-thienyl}carbonyl)pyrimidin-4-yl]amino}-2-hydroxycyclopentyl]methyl sulfamate or [(1R,2S,4R)-4-{[5-({4-[(1S)-7-cyclopropyl-3,4-dihydro-1H-isochromen-1-yl]-5-methyl-2-thienyl}carbonyl)pyrimidin-4-yl]amino}-2-hydroxycyclopentyl]methyl sulfamate], the pIC50 was > 8.00. Besides, the “Percent Inhibition” value (Concentration 0.111 μM) turned out to be 100.
Regarding `Cc1sc(C(=O)c2cncnc2N[C@@H]2C[C@H](COS(N)(=O)=O)[C@@H](O)C2)cc1[C@@H]1OCCc2ccc(C3CC3)cc21` (single isomer, unassigned) [I-277b, [(1R,2S,4R)-4-{[5-({4-[(1R)-7-cyclopropyl-3,4-dihydro-1H-isochromen-1-yl]-5-methyl-2-thienyl}carbonyl)pyrimidin-4-yl]amino}-2-hydroxycyclopentyl]methyl sulfamate or [(1R,2S,4R)-4-{[5-({4-[(1S)-7-cyclopropyl-3,4-dihydro-1H-isochromen-1-yl]-5-methyl-2-thienyl}carbonyl)pyrimidin-4-yl]amino}-2-hydroxycyclopentyl]methyl sulfamate], the negative logarithm of the IC50 (pIC50) is 7.00 to 8.00. Besides, under “Concentration 0.111 μM”, the “Percent Inhibition” value was 81.
For `NS(=O)(=O)OC[C@H]1C[C@@H](Nc2ncncc2C(=O)c2cc(C3SCCc4ccc(Cl)cc43)cs2)[C@H](O)[C@@H]1O` (single isomer, unassigned) [I-278a, [(1R,2R,3S,4R)-4-{[5-({4-[(1R)-7-chloro-3,4-dihydro-1H-isothiochromen-1-yl]-2-thienyl}carbonyl)pyrimidin-4-yl]amino}-2,3-dihydroxycyclopentyl]methyl sulfamate or [(1R,2R,3S,4R)-4-{[5-({4-[(1S)-7-chloro-3,4-dihydro-1H-isothiochromen-1-yl]-2-thienyl}carbonyl)pyrimidin-4-yl]amino}-2,3-dihydroxycyclopentyl]methyl sulfamate], the pIC50 was 7.00 to 8.00. Moreover, where the note is “Concentration 0.111 μM”, the “Percent Inhibition” value was found to be 77.
Taken in the same sequence, the figures for `NS(=O)(=O)OC[C@H]1C[C@@H](Nc2ncncc2C(=O)c2cc(C3SCCc4ccc(Cl)cc43)cs2)[C@H](O)[C@@H]1O` (single isomer, unassigned) [I-278b, [(1R,2R,3S,4R)-4-{[5-({4-[(1R)-7-chloro-3,4-dihydro-1H-isothiochromen-1-yl]-2-thienyl}carbonyl)pyrimidin-4-yl]amino}-2,3-dihydroxycyclopentyl]methyl sulfamate or [(1R,2R,3S,4R)-4-{[5-({4-[(1S)-7-chloro-3,4-dihydro-1H-isothiochromen-1-yl]-2-thienyl}carbonyl)pyrimidin-4-yl]amino}-2,3-dihydroxycyclopentyl]methyl sulfamate] were > 8.00 and 99.
Regarding `NS(=O)(=O)OC[C@H]1C[C@@H](Nc2ncncc2C(=O)c2cc([C@H]3NCCc4ccccc43)c(Cl)s2)C[C@@H]1O` (single isomer, unassigned) [I-279a, [(1R,2S,4R)-4-{[5-({5-chloro-4-[(1S)-1,2,3,4-tetrahydroisoquinolin-1-yl]-2-thienyl}carbonyl)pyrimidin-4-yl]amino}-2-hydroxycyclopentyl]methyl sulfamate or [(1R,2S,4R)-4-{[5-({5-chloro-4-[(1R)-1,2,3,4-tetrahydroisoquinolin-1-yl]-2-thienyl}carbonyl)pyrimidin-4-yl]amino}-2-hydroxycyclopentyl]methyl sulfamate], the pIC50 is > 8.00. Also, where the note is “Concentration 0.111 μM”, the “Percent Inhibition” value was determined as 100.
In the same order, the values of `NS(=O)(=O)OC[C@H]1C[C@@H](Nc2ncncc2C(=O)c2cc([C@H]3NCCc4ccccc43)c(Cl)s2)C[C@@H]1O` (single isomer, unassigned) [I-279b, [(1R,2S,4R)-4-{[5-({5-chloro-4-[(1S)-1,2,3,4-tetrahydroisoquinolin-1-yl]-2-thienyl}carbonyl)pyrimidin-4-yl]amino}-2-hydroxycyclopentyl]methyl sulfamate or [(1R,2S,4R)-4-{[5-({5-chloro-4-[(1R)-1,2,3,4-tetrahydroisoquinolin-1-yl]-2-thienyl}carbonyl)pyrimidin-4-yl]amino}-2-hydroxycyclopentyl]methyl sulfamate] are 7.00 to 8.00 and 84.
In the case of `Cc1sc(C(=O)c2cncnc2N[C@@H]2C[C@H](COS(N)(=O)=O)[C@@H](O)C2)cc1[C@@H]1OCOc2ccccc21` (single isomer, unassigned) [I-280a, [(1R,2S,4R)-4-{[5-({4-[(4R)-4H-1,3-benzodioxin-4-yl]-5-methyl-2-thienyl}carbonyl)pyrimidin-4-yl]amino}-2-hydroxycyclopentyl]methyl sulfamate or [(1R,2S,4R)-4-{[5-({4-[(4S)-4H-1,3-benzodioxin-4-yl]-5-methyl-2-thienyl}carbonyl)pyrimidin-4-yl]amino}-2-hydroxycyclopentyl]methyl sulfamate], the IC50 lay in the range of 10 to 100 nM. The “Percent Inhibition” value under setting [1] is reported as 75%.
Turning to `Cc1sc(C(=O)c2cncnc2N[C@@H]2C[C@H](COS(N)(=O)=O)[C@@H](O)C2)cc1[C@@H]1OCOc2ccccc21` (single isomer, unassigned) [I-280b, [(1R,2S,4R)-4-{[5-({4-[(4R)-4H-1,3-benzodioxin-4-yl]-5-methyl-2-thienyl}carbonyl)pyrimidin-4-yl]amino}-2-hydroxycyclopentyl]methyl sulfamate or [(1R,2S,4R)-4-{[5-({4-[(4S)-4H-1,3-benzodioxin-4-yl]-5-methyl-2-thienyl}carbonyl)pyrimidin-4-yl]amino}-2-hydroxycyclopentyl]methyl sulfamate], the half-inhibitory concentration (IC50) is < 10 nM. Besides, the “Percent Inhibition” value under setting [1] stood at 100%.
For `NS(=O)(=O)OC[C@H]1C[C@@H](Nc2ncncc2C(=O)c2cc([C@@H]3OCC4(CC4)c4ccccc43)cs2)C[C@@H]1O` (single isomer, unassigned) [I-281a, [(1R,2S,4R)-2-hydroxy-4-{[5-({4-[(1′R)-1′H-spiro[cyclopropane-1,4′-isochromen]-1′-yl]-2-thienyl}carbonyl)pyrimidin-4-yl]amino}cyclopentyl]methyl sulfamate or [(1R,2S,4R)-2-hydroxy-4-{[5-({4-[(1′S)-1′H-spiro[cyclopropane-1,4′-isochromen]-1′-yl]-2-thienyl}carbonyl)pyrimidin-4-yl]amino}cyclopentyl]methyl sulfamate], the 50% inhibitory concentration (IC50) lay within 10 to 100 nM. Further, the “Percent Inhibition” value under setting [1] is 74%.
On to `NS(=O)(=O)OC[C@H]1C[C@@H](Nc2ncncc2C(=O)c2cc([C@@H]3OCC4(CC4)c4ccccc43)cs2)C[C@@H]1O` (single isomer, unassigned) [I-281b, [(1R,2S,4R)-2-hydroxy-4-{[5-({4-[(1′R)-1′H-spiro[cyclopropane-1,4′-isochromen]-1′-yl]-2-thienyl}carbonyl)pyrimidin-4-yl]amino}cyclopentyl]methyl sulfamate or [(1R,2S,4R)-2-hydroxy-4-{[5-({4-[(1′S)-1′H-spiro[cyclopropane-1,4′-isochromen]-1′-yl]-2-thienyl}carbonyl)pyrimidin-4-yl]amino}cyclopentyl]methyl sulfamate], for which the IC50 was < 10 nM. For the same molecule, under setting [1], the “Percent Inhibition” value is on record as 99%.
`NS(=O)(=O)OC[C@H]1C[C@@H](Nc2ncncc2C(=O)c2cc([C@@H]3OCCc4ccc(Cl)cc43)c(Cl)s2)C[C@@H]1O` (single isomer, unassigned) [I-282a, [(1R,2S,4R)-4-{[5-({5-chloro-4-[(1R)-7-chloro-3,4-dihydro-1H-isochromen-1-yl]-2-thienyl}carbonyl)pyrimidin-4-yl]amino}-2-hydroxycyclopentyl]methyl sulfamate or [(1R,2S,4R)-4-{[5-({5-chloro-4-[(1S)-7-chloro-3,4-dihydro-1H-isochromen-1-yl]-2-thienyl}carbonyl)pyrimidin-4-yl]amino}-2-hydroxycyclopentyl]methyl sulfamate]: the half-inhibitory concentration (IC50) fell in the range of 100 to 1000 nM. Under setting [1], the “Percent Inhibition” value is listed as 37%.

Source of the values: patent US10780090B2, “Heteroaryl compounds useful as inhibitors of SUMO activating enzyme” (Millennium Pharmaceuticals, Inc., priority 2014, dated 2020).
